A short description of data set [1]: Human liver microsome assay (metabolic stability). The conditions noted are these: pH 7.4; human liver microsomes 0.2 mg/mL, 1 μM test drug, NADPH, 37° C.; read-out: Half-life (t1/2, min). Type of data set: in vitro ADME. In short, it runs like this:
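Human liver microsomes 0.2 mg/mL with 1 μM compound, 3.0 mM MgCl2 and 2.0 mM NADPH in 0.1 M phosphate pH 7.4, 37 °C; sampled at 0–60 min. LC-MS/MS peak-area ratio to internal standard; T1/2 and CLint from slope of ln residual versus time.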
(In general: Liver microsomes are a subcellular fraction often used to study metabolism.)

The next data set addresses human DAT (Homo sapiens, UniProt Q01959). The experiment in a line: DAT transporter inhibitory activity test (neurotransmitter transporter uptake assay kit). Format: cell-based.
For a further data set, the target named is human NET (Homo sapiens, UniProt P23975). The experiment in a line: NET transporter inhibitory activity test (neurotransmitter transporter uptake assay kit). Type of data set: cell-based. The procedure: Transporter inhibition of human DAT and NET expressed in HEK-293 cells was assessed using a neurotransmitter transporter uptake assay kit. The assay was performed as described in the kit instructions, using centanafadine as a positive control. The specific procedures were as follows:
First day cell plating: HEK 293T cells were digested with trypsin, centrifuged, resuspended with a medium, counted, and seeded into a 6 cm culture dish at a density of 3×10^6 cells/well.
Second day cell transfection: HEK 293T cells were subjected to medium exchange, and then A, B tubes were prepared for NET-pcDNA5/FRT plasmid to be transfected. 200 μL of Opti-MEM was added to tube A, and 10 μL of Lipofectamine™ 3000 was added. The mixture was mixed well. 200 μL of Opti-MEM was added to tube B, and 5 μg of NET-pcDNA5/FRT plasmid was added. The mixture was mixed well, and then 10 μL of P3000™ was added to tube B. The mixture was mixed well (plasmid to transfection reagent ratio 1 μg:2 μL). The diluted solution of tube A was added to the diluted solution of tube B. The mixture was mixed well, and incubated at room temperature for 15 min. Finally, the mixture was gently added to the cells that had been subjected to medium exchange, gently shaken to mix, and then incubated overnight in an incubator at 37° C. with a carbon dioxide concentration of 5%. The cells were used for compound functional activity assays 18-20 h after transfection.
• a) After overnight transfection of NET cells, the cells were digested with trypsin, resuspended with DMEM+10% Dialyzed FBS medium, seeded into a 384-well plate at 20000 cells/well, and incubated overnight. Stably transfected DAT cells were digested with trypsin, resuspended with DMEM+10% Dialyzed FBS medium, seeded into a 384-well plate at 2500 cells/well, and incubated overnight. • b) 1× Assay buffer was prepared according to the kit instruction for later use; the positive compound and the test compound were serially diluted with DMSO, and then diluted to 2× with 1× assay buffer. • c) The medium was removed from the 384-well plate by centrifugation. • d) 16 μL of the compound prepared in step b) was added to corresponding experimental wells, wherein an initial concentration of 2× positive control compound was added to the positive control well, and 0.2% DMSO buffer was added to the negative control well. After centrifuging, the plate was incubated at 37° C. for 30 min. • e) A detection reagent was prepared using 1×HBSS, and 16 μL of the detection reagent was added to each well. After centrifuging, the plate was incubated at 37° C. for 60 min. • f) After incubation, the reading at 510 nm under the excitation of the detection wavelength of 425 nm was measured using a microplate reader. Curve fitting and IC50 calculation were performed using GraphPad Prism software nonlinear regression method.

As usually defined, the IC50 is the concentration that inhibits the measured activity by half.

The structures appear in SMILES notation.

Sequence of human NET (P23975 whole entry): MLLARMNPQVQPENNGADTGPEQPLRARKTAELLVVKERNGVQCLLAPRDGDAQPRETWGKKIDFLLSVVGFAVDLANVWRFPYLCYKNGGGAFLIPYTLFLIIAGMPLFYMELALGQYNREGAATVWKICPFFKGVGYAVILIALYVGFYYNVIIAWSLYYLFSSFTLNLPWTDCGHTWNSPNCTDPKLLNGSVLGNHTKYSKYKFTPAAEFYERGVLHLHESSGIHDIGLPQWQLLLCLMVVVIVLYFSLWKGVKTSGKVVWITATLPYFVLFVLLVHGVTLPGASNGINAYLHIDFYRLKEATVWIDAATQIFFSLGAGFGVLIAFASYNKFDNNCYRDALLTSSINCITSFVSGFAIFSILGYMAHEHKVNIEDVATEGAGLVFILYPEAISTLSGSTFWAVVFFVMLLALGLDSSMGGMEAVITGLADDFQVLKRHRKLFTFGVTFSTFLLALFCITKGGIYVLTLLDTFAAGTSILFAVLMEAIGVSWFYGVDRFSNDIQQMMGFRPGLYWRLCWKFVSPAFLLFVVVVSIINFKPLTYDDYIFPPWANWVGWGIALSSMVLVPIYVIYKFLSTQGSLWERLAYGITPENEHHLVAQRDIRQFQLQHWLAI
Sequence of human DAT (Q01959 whole entry): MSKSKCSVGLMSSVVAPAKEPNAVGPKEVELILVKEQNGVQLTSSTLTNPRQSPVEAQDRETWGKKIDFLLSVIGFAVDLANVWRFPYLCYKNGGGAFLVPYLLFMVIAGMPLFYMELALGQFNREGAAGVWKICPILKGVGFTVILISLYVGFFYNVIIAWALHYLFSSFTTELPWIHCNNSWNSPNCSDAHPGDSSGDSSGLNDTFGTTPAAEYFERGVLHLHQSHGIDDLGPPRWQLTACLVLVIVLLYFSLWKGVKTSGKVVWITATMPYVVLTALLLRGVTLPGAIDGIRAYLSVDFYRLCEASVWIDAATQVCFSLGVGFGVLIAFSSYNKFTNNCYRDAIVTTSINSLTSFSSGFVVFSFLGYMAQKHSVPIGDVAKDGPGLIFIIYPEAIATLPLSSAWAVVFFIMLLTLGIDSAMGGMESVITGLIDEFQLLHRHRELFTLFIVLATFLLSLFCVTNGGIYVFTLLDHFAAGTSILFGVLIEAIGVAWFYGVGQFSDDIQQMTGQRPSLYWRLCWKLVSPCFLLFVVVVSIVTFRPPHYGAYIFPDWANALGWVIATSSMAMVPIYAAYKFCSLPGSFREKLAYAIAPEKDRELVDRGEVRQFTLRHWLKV

On to `CCNC1(c2ccccc2)CCc2nc(N)sc2C1` (racemic) [rac-A5, N^6-ethyl-6-phenyl-4,5,6,7-tetrahydrobenzothiazole-2,6-diamine], for which the half-life at 1 μM in data set [1] was more than 120 min. In addition, the half-inhibitory concentration (IC50) on human DAT is 2000 nM; at human NET, 3300 nM.

The record behind these values is patent publication US20260174739A1 (priority 2022, published 2026).
